Results on 5 molecules are retold here after patent US8765465B2, “Efficient production and use of highly cardiogenic progenitors and cardiomyocytes from embryonic and induced pluripotent stem cells” (Kyoto University, priority 2008, dated 2014).

Experiment [1] relates to Flk1+ mesoderm cells from EMG7 mouse ES cells. As to the kind of experiment: Cardiomyocyte induction from ES cell-derived Flk1+ mesoderm cells on OP9 (experiment 1). It counts as cell-based. The conditions noted are these: added to Flk1+ cells.
Method: Undifferentiated ES cells were cultured on OP9 cells or type IV collagen (Col. IV)-coated dishes (ES-d0) for 96-108 h in differentiation medium (see Methods) to induce differentiation to Flk1^+ cells. Flk1^+/E-cadherin^− mesoderm cells obtained by FACS were plated onto OP9 stroma cells to induce further differentiation to cardiomyocytes (designated as Flk-d0). FCV cells appeared at Flk-d2 as Flk1^+/CXCR4^+/vascular endothelial cadherin^− population. Beating colonies started to be observed by Flk-d4. Appearance of alpha-MHC promoter-driven GFP^+ cardiomyocytes were evaluated and collected at Flk-d6. Experiment 1: differentiation from mesoderm to cardiomyocytes. […] Experiment 2: differentiation from undifferentiated ES cells to mesoderm. […] Experiment 3: differentiation from mesoderm to cardiac progenitors. […] Experiment 4: differentiation from cardiac progenitors to cardiomyocytes.
After 96-108 h of ES cell differentiation, cultured cells were harvested and stained with allophycocyanin (APC)-conjugated AVAS12 and FITC-conjugated ECCD2. […] PKH-negative populations were analyzed and sorted as ES cell-derived cells. […] For FACS for cardiomyocytes, cells were harvested after 6 days culture of Flk1^+ cells on OP9 cells (Flk-d6), GFP^+ population was evaluated and sorted as differentiated cardiomyocytes.
For the next experiment, the system named is Flk1+ cells. The experiment can be described thus: Mesoderm-specific treatment Flk-d0-2, cardiomyocytes at Flk-d6 (experiment 5). Type of experiment: cell-based, mouse. Particulars: added only Flk-d0-2. An excerpt: Beating colonies started to be observed by Flk-d4. […] Experiment 1: differentiation from mesoderm to cardiomyocytes. […] Experiment 2: differentiation from undifferentiated ES cells to mesoderm. […] Experiment 3: differentiation from mesoderm to cardiac progenitors. […] Experiment 4: differentiation from cardiac progenitors to cardiomyocytes.
Medium was replaced every 2 days.

Regarding 11R-VIVIT, in experiment [1], the “effect on cardiomyocyte induction (cTnT staining)” value is given as “no significant effect”.

`C=CC[C@@H]1/C=C(\C)C[C@H](C)C[C@H](OC)[C@H]2O[C@@](O)(C(=O)C(=O)N3CCCC[C@H]3C(=O)O[C@H](/C(C)=C/[C@@H]3CC[C@@H](O)[C@H](OC)C3)[C@H](C)[C@@H](O)CC1=O)[C@H](C)C[C@@H]2OC` [FK506]: the “effect on cardiomyocyte induction (cTnT staining)” value in experiment [1] is reported as “no significant effect”. In the case of TGF-β, the “cardiomyocytes at Flk-d6 after mesoderm-specific addition” value (from here on “cardiomyocytes at Flk-d6”) in the experiment on Flk1+ cells is reported as “significant decrease”.

B1: Dkk1: factor from R&D Systems (protein, UniProt O94907 32-266, looked up)
Dickkopf-related protein 1: TLNSVLNSNAIKNLPPPLGGAAGHPGSAVSAAPGILYPGGNKYQTIDNYQPYPCAEDEECGTDEYCASPTRGGDAGVQICLACRKRRKRCMRHAMCCPGNYCKNGICVSSDQNHFRGEIEETITESFGNDHSTLDGYSRRTTLSSKMYHTKGQEGSVCLRSSDCASGLCCARHFWSKICKPVLKEGQVCTKHRRKGSHGLEIFQRCYCGEGLSCRIQKDHHQASNSSRLHTCQRH
B1: in the experiment with Flk1+ cells, the “cardiomyocytes at Flk-d6” value is given as “significantly increased” and the “effect on cardiomyocytes relative to that of CSA” value was “much weaker”.

B2: wnt3a: factor from R&D Systems (protein, UniProt P56704 19-352, looked up)
Protein Wnt-3a: SYPIWWSLAVGPQYSSLGSQPILCASIPGLVPKQLRFCRNYVEIMPSVAEGIKIGIQECQHQFRGRRWNCTTVHDSLAIFGPVLDKATRESAFVHAIASAGVAFAVTRSCAEGTAAICGCSSRHQGSPGKGWKWGGCSEDIEFGGMVSREFADARENRPDARSAMNRHNNEAGRQAIASHMHLKCKCHGLSGSCEVKTCWWSQPDFRAIGDFLKDKYDSASEMVVEKHRESRGWVETLRPRYTYFKVPTERDLVYYEASPNFCEPNPETGSFGTRDRTCNVSSHGIDGCDLLCCGRGHNARAERRREKCRCVFHWCCYVSCQECTRVYDVHTCK
As to B2, in the experiment on Flk1+ cells, the “cardiomyocytes at Flk-d6” value was “significant decrease”.
